Experimental data from PubChem BioAssay AID1199 (EPA DSSTox, 2008).
Calls of active or inactive are those of the source.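 How the source made its calls: active means a tumour-causing dose and a tumour site recorded for mice in at least one sex group; inconclusive means only government mouse studies exist and were judged inadequate; inactive means mouse studies exist but none gave tumours.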

Test system: mouse carcinogenicity bioassay, TD50 from CPDB
Assay: DSSTox (CPDBAS) Carcinogenic Potency Database Summary Mouse Bioassay Results
Method in brief: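 Values are TD50 carcinogenic potencies from mouse chronic bioassays, taking the most positive result for each sex-species. Sources are published literature and NCI/NTP studies; target sites reflect author-reported positive findings.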

[1] = TD50_Mouse_Note: no positive results, TargetSites_Mouse_Female: no positive results
[2] = TargetSites_Mouse_Female: liver
[3] = TD50_Mouse_Note: TD50 is harmonic mean of more than one positive test, TargetSites_Mouse_Female: stomach
[4] = TD50_Mouse_Note: TD50 is harmonic mean of more than one positive test, TargetSites_Mouse_Female: liver

## Nc1ccc(-c2ccc(N)c(O)c2)cc1O
TD50_Mouse_Note: no positive results are statistically significant
  Potency: 1.22 mmol/kg/day

## CN(N=O)c1ncnc2c1ncn2[C@@H]1O[C@H](CO)[C@@H](O)[C@H]1O
TD50_Mouse_Note: TD50 is harmonic mean of more than one positive test, TargetSites_Mouse_Female: lung, mammary gland, uterus
  Potency: 0.059 mmol/kg/day

## F
[1]
  outcome: inactive; no positive results

## CCC(C)c1cc([N+](=O)[O-])cc([N+](=O)[O-])c1O (stereo unspecified)
[1]
  outcome: inactive; no positive results

## Nc1ncn([C@@H]2O[C@H](CO)[C@@H](O)[C@H]2O)c(=O)n1
TD50_Mouse_Note: positive test results only by intraperitoneal or intravenous injection, TD50 is harmonic mean of more than one positive, TargetSites_Mouse_Female: hematopoietic system, mammary gland, skin
  Potency: 0.000317 mmol/kg/day

## OC[C@@H](O)[C@@H](O)[C@H](O)[C@H](O)CO
[1]
  outcome: inactive; no positive results

## CCN(CC)C(=S)[S-].CCN(CC)C(=S)[S-].[Zn+2]
[1]
  outcome: inactive; no positive results

## [Cl-].[Cl-].[Sn+2]
[1]
  outcome: inactive; no positive results

## CN(C)c1ccc(Cc2ccc(N(C)C)cc2)cc1
[2]
  Potency: 0.814 mmol/kg/day

## CCCCOCCO
[3]
  Potency: 14.5 mmol/kg/day

## NC(N)=NC(N)=NCCc1ccccc1
[1]
  outcome: inactive; no positive results

## Nc1ccc(Cl)cc1N
[4]
  Potency: 9.4 mmol/kg/day

## Cc1c(N)cccc1N
[1]
  outcome: inactive; no positive results

## ClC(Cl)=C(c1ccc(Cl)cc1)c1ccc(Cl)cc1
[4]
  Potency: 0.0393 mmol/kg/day

## CC(Cl)CCl (stereo unspecified)
[4]
  Potency: 2.44 mmol/kg/day

## O=[N+]([O-])c1c(Cl)c(Cl)c(Cl)c(Cl)c1Cl
TargetSites_Mouse_Female: no positive results
  Potency: 0.241 mmol/kg/day

## ClC#CCl
TD50_Mouse_Note: TD50 is harmonic mean of more than one positive test, TargetSites_Mouse_Female: harderian gland, kidney
  Potency: 0.00605 mmol/kg/day

## S=C(NC1CCCCC1)NC1CCCCC1
[1]
  outcome: inactive; no positive results

## O=c1cc[nH]c(=O)[nH]1
TD50_Mouse_Note: TD50 is harmonic mean of more than one positive test, greater than ten-fold variation among TD50 values for positive res, TargetSites_Mouse_Female: urinary bladder
  Potency: 24.5 mmol/kg/day

## O=C([O-])C(=O)O.O=C([O-])C(=O)O.[K+].[K+].[O]=[Ti]
[1]
  outcome: inactive; no positive results

## Nc1ccc(-c2ccc(F)cc2)cc1
[4]
  Potency: 0.00609 mmol/kg/day

## ClCc1cccnc1
[3]
  Potency: 1.4 mmol/kg/day

## ClCC(Cl)(Cl)Cl
[4]
  Potency: 1.08 mmol/kg/day

## COc1cc(/C=N/NC(=O)c2ccncc2)ccc1O
TargetSites_Mouse_BothSexes: liver, mammary gland
  Potency: 0.101 mmol/kg/day

## O=[As]O
TD50_Mouse_Note: no positive results, TargetSites_Mouse_BothSexes: no positive results
  outcome: inactive

## CCCCN(CC)C(=O)SCCC
[1]
  outcome: inactive; no positive results

## Cc1cccc(Nc2cc(Cl)nc(SCC(=O)NCCO)n2)c1C
[2]
  Potency: 0.122 mmol/kg/day

## COC(=O)C(c1ccccc1)C1CCCCN1N=O (stereo unspecified)
[1]
  outcome: inactive; no positive results

## S=P(N1CC1)(N1CC1)N1CC1
TD50_Mouse_Note: positive test results only by intraperitoneal or intravenous injection, TD50 is harmonic mean of more than one positive, TargetSites_Mouse_Female: hematopoietic system
  Potency: 0.00118 mmol/kg/day

## OCC(CO)N[C@H]1C[C@](O)(CO)[C@@H](O)[C@H](O)[C@H]1O
[1]
  outcome: inactive; no positive results

## [O]=[Nb](=[O])[OH]
TargetSites_Mouse_BothSexes: no positive results
  outcome: inactive

## NC(=O)Cc1cccc2ccccc12
[1]
  outcome: inactive; no positive results

## O=C(O)c1ccc([N+](=O)[O-])cc1
[1]
  outcome: inactive; no positive results

## CN(N=O)C(=O)N[C@@H]1[C@@H](O)[C@H](O)[C@@H](CO)O[C@@H]1O
TD50_Mouse_Note: positive test results only by intraperitoneal or intravenous injection, TD50 is harmonic mean of more than one positive, TargetSites_Mouse_Female: kidney, lung
  Potency: 0.00103 mmol/kg/day

## CC(=O)Nc1ccc(S(=O)(=O)O)c2cc(S(=O)(=O)O)c(N=Nc3ccc(N=Nc4ccc(S(=O)(=O)O)cc4)c4ccc(S(=O)(=O)O)cc34)c(O)c12
[1]
  outcome: inactive; no positive results

## CCOC(=O)C(O)(c1ccc(Cl)cc1)c1ccc(Cl)cc1
TD50_Mouse_Note: TD50 is harmonic mean of more than one positive test, greater than ten-fold variation among TD50 values for positive res, TargetSites_Mouse_Female: liver
  Potency: 0.289 mmol/kg/day

## Nc1ccccc1C(=O)OC/C=C/c1ccccc1
[4]
  Potency: 10.2 mmol/kg/day

## Nc1ccc(/C=C/c2ccc(N)cc2S(=O)(=O)O)c(S(=O)(=O)O)c1
[1]
  outcome: inactive; no positive results

## [O-]/[N+](=N\O)c1ccccc1
TD50_Mouse_Note: TD50 is harmonic mean of more than one positive test, TargetSites_Mouse_Female: ear Zymbals gland, harderian gland, liver, vascular system
  Potency: 3.77 mmol/kg/day

## COc1cc(CNC(=O)CCCC/C=C/C(C)C)ccc1O
TD50_Mouse_Note: TD50 is harmonic mean of more than one positive test, no positive results are statistically significant, TargetSites_Mouse_Female: large intestine
  Potency: 0.547 mmol/kg/day

## CC(=O)Oc1ccccc1C(=O)O
[1]
  outcome: inactive; no positive results

## O=[N+]([O-])c1ccccc1
TD50_Mouse_Note: TD50 is harmonic mean of more than one positive test, TargetSites_Mouse_Female: liver, mammary gland
  Potency: 2.4 mmol/kg/day

## C1CCOC1
[2]
  Potency: 18 mmol/kg/day

## CCOP(=S)(OCC)Oc1cc(C)nc(C(C)C)n1
[1]
  outcome: inactive; no positive results

## CCC1NC(=O)C2C(Cl)C(Cl)CN2C(=O)C(CO)NC(=O)CC(c2ccccc2)NC(=O)C(CO)NC1=O (stereo unspecified)
  Potency: 0.0412 mmol/kg/day

## CC[C@H]1CN2CCc3cc(OC)c(OC)cc3[C@@H]2C[C@@H]1C[C@H]1NCCc2cc(OC)c(OC)cc21
TD50_Mouse_Note: only experiment is NCI/NTP bioassay inadequate, TargetSites_Mouse_Female: NTP bioassay inadequate
  outcome: ntp bioassay inadequate
